From patent US20260115250A1, “METHODS OF TREATING AGE-RELATED MACULAR DEGENERATION” (Character Biosciences, Inc., priority 2022, published 2026) come the findings set out here.

Ends that are not written are not given here. Peptide text beside a SMILES is read from it.

Data set [1] has as its target T1, LDLR (Homo sapiens, UniProt P01130). Put plainly: LDLR binding (SPR), high surfactant preparation. As for the experimental part: The table shown in FIG. 23 illustrates LDLR binding data (SPR), using a high surfactant preparation. Recombinant LDLR was diluted in 10 mM acetate buffer pH 4.5 and amine coupled to a CM5 chip at 1000 RU. Peptides were diluted to 5 μM in running buffer (HBS-P+, 1 mM CaCl2) and serially diluted 1:3 for 5 total concentrations. Peptides were exposed to immobilized LDLR at a rate of […] for 120 seconds. Between cycles, the chip surface was regenerated with 3 injections of 50 mM NaOH/100 mM EDTA. Multi-Cycle Kinetics was performed on a Biacore Insight Evaluation Software and binding kinetics were analyzed with a 1:1 binding model.
Target sequence in this assay (P01130 22-860): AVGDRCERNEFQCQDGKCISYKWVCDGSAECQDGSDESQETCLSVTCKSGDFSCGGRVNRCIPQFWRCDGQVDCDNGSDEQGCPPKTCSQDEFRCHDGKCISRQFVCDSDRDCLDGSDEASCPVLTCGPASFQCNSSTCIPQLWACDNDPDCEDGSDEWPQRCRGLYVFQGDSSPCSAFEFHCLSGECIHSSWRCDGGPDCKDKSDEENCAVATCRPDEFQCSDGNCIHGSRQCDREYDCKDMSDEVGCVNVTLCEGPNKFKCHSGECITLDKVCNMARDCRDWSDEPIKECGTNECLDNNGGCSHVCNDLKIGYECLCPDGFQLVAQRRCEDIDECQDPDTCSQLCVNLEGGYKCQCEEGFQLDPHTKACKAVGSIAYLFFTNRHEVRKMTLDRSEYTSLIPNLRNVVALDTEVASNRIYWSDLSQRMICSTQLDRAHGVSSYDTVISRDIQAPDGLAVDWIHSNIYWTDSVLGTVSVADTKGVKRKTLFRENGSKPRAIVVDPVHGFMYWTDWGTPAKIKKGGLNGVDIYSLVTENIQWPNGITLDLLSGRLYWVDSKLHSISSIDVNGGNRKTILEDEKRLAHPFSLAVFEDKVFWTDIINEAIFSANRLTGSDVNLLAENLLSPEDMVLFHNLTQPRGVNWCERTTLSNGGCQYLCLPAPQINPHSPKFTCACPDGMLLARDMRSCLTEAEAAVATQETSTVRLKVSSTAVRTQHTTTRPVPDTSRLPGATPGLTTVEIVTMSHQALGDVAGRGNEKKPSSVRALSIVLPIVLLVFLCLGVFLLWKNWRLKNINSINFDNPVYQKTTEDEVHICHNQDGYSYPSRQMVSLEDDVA

Data set [2] has as its target T1, LDLR. The data set is described as follows: KD (µM). The text has this: First copying reader's note: Left of three side-by-side panels of FIG. 23; the KD cells hold value ± error together. Where the first naming reader finds the target: description_of_the_figure: FIG. 23 is a table showing the binding kinetics results of LDLR binding assays (SPR)
Target sequence in this assay (P01130 22-860 limits assumed): as the sequence (P01130 22-860) above
The subject of data set [3] is ARPE-19 cells. Put plainly: ARPE-19 cell viability assay (Cell Titer Glo). The settings on record: 100 μM peptide, 1.5 hours. Type of data set: cell-based, human. On the procedure:
ARPE-19 cells were seeded in 96-well plates at 25,000 cells/well and allowed to adhere to the plate surface for at least 24 hours. Peptides were diluted in serum-free DMEM: F12 to a final concentration of 100 μM. Cells were washed, then incubated in 100 μM peptide solution for 1.5 hours at 37° C. Plates were brought to room temperature for 30 minutes, then washed with DPBS. Cells were incubated in a 1:1 mixture of DPBS and Cell Titer Glo 2.0 Reagent for 10 minutes at room temperature, then cell luminescence was read on a plate reader. Viability values were background corrected, and 0% viability is determined by luminescence values of cells treated with 1% Triton-X-100. Data are presented as mean+SD over two separate runs.
On the technique in general: In ATP-based viability assays light output follows the ATP content of the culture.

Setting [4] is: high surfactant preparation (HBS-P+), 1:1 binding model, read-out: binding KD to LDLR.

The term Kd denotes the constant that tells how readily two partners part at equilibrium. Take `CC(C)C[C@H](NC(=O)[C@H](CCCNC(=N)N)NC(=O)[C@H](CCCCN)NC(=O)[C@H](CCC(N)=O)NC(=O)[C@H](CC(C)C)NC(=O)[C@H](CC(=O)O)NC(=O)[C@H](CC(=O)O)NC(=O)[C@H](C)NC(=O)[C@H](CC(=O)O)NC(=O)[C@H](CCCNC(=N)N)NC(=O)[C@H](C)NC(=O)[C@H](CC(C)C)NC(=O)[C@H](CCCNC(=N)N)NC(=O)[C@H](CCCCN)NC(=O)[C@H](CCCNC(=N)N)NC(=O)[C@H](CC(C)C)NC(=O)[C@H](CCCCN)NC(=O)[C@H](CCCNC(=N)N)NC(=O)[C@H](CC(C)C)NC(=O)[C@H](Cc1c[nH]cn1)NC(=O)[C@H](CCCNC(=N)N)NC(=O)[C@H](C)NC(=O)[C@@H](N)CC(C)C)C(=O)N[C@@H](C)C(=O)N[C@H](C(=O)N[C@@H](Cc1ccc(O)cc1)C(=O)N[C@@H](CCC(N)=O)C(=O)N[C@@H](C)C(=O)NCC(=O)N[C@@H](C)C(=O)N[C@@H](CCCNC(=N)N)C(=O)N[C@@H](CCC(=O)O)C(=O)NCC(=O)N[C@@H](C)C(=O)N[C@@H](CCC(=O)O)C(=O)N[C@@H](CCCNC(=N)N)C(=O)O)C(C)C` [T-047] (H-LARHLRKLRKRLARDADDLQKRLAVYQAGAREGAER-OH): the Kd was less than 10 µM in data set [1] (setting [4]) and 3.26 ± 0.23 µM in data set [2].

In turn, `CC(C)C[C@H](NC(=O)[C@H](CCCNC(=N)N)NC(=O)[C@H](CC(=O)O)NC(=O)[C@H](CCC(N)=O)NC(=O)[C@H](CC(C)C)NC(=O)[C@H](CCCCN)NC(=O)[C@H](CC(=O)O)NC(=O)[C@H](C)NC(=O)[C@H](CC(=O)O)NC(=O)[C@H](CCCNC(=N)N)NC(=O)[C@H](CC(C)C)NC(=O)[C@H](CC(C)C)NC(=O)[C@H](CCCNC(=N)N)NC(=O)[C@H](CCCCN)NC(=O)[C@H](CCCNC(=N)N)NC(=O)[C@H](CC(C)C)NC(=O)[C@H](CCCCN)NC(=O)[C@H](CCCNC(=N)N)NC(=O)[C@H](CC(C)C)NC(=O)[C@@H](N)Cc1c[nH]cn1)C(=O)N[C@@H](C)C(=O)N[C@@H](CCC(=O)O)C(=O)N[C@@H](Cc1ccc(O)cc1)C(=O)N[C@@H](CCC(N)=O)C(=O)N[C@@H](C)C(=O)N[C@@H](CCCNC(=N)N)C(=O)N[C@@H](C)C(=O)N[C@@H](CCCCN)C(=O)N[C@@H](CCC(=O)O)C(=O)N[C@@H](C)C(=O)N[C@@H](Cc1ccccc1)C(=O)N[C@@H](CC(=O)O)C(=O)N[C@@H](CCCNC(=N)N)C(=O)O` [T-050] (H-HLRKLRKRLLRDADKLQDRLAEYQARAKEAFDR-OH; N-terminus and C-terminus assumed) displayed a Kd in data set [2] of 528.5 ± 0.71 µM. With `CC(C)C[C@H](NC(=O)[C@H](CCCNC(=N)N)NC(=O)[C@H](CC(=O)O)NC(=O)[C@H](Cc1ccc(O)cc1)NC(=O)[C@H](CC(C)C)NC(=O)[C@H](CCCCN)NC(=O)[C@H](CC(=O)O)NC(=O)CNC(=O)[C@H](CC(=O)O)NC(=O)[C@H](CCCNC(=N)N)NC(=O)[C@H](CC(C)C)NC(=O)[C@H](CC(C)C)NC(=O)[C@H](CCCNC(=N)N)NC(=O)[C@H](CCCCN)NC(=O)[C@H](CCCNC(=N)N)NC(=O)[C@H](CC(C)C)NC(=O)[C@H](CCCCN)NC(=O)[C@H](CCCNC(=N)N)NC(=O)[C@H](CC(C)C)NC(=O)[C@@H](N)Cc1c[nH]cn1)C(=O)N[C@@H](C)C(=O)N[C@@H](CCC(=O)O)C(=O)N[C@@H](Cc1ccc(O)cc1)C(=O)N[C@@H](Cc1ccc(O)cc1)C(=O)N[C@@H](C)C(=O)N[C@@H](CCCNC(=N)N)C(=O)N[C@@H](C)C(=O)N[C@@H](CCCCN)C(=O)N[C@@H](CCC(=O)O)C(=O)N[C@@H](C)C(=O)N[C@@H](Cc1ccccc1)C(=O)N[C@@H](CC(=O)O)C(=O)N[C@@H](CCCNC(=N)N)C(=O)O` [T-062] (H-HLRKLRKRLLRDGDKLYDRLAEYYARAKEAFDR-OH), the ARPE-19 cell viability result in data set [3] is given as “substantial change in viability”. For the same compound, the Kd in data set [1] (setting [4]) is less than 10 µM. In the same order, the values of `CSCC[C@H](NC(=O)[C@H](CC(C)C)NC(=O)[C@H](CC(=O)O)NC(=O)[C@H](CCCCN)NC(=O)CNC(=O)[C@H](Cc1ccc(O)cc1)NC(=O)[C@H](CC(=O)O)NC(=O)[C@@H](NC(=O)[C@@H](NC(=O)[C@@H](NC(=O)[C@H](CCC(N)=O)NC(=O)[C@H](Cc1ccccc1)NC(=O)[C@H](Cc1ccc(O)cc1)NC(=O)[C@H](CCC(N)=O)NC(=O)[C@H](CO)NC(=O)[C@@H](NC(=O)[C@H](CC(C)C)NC(=O)[C@H](CO)NC(=O)[C@H](CCCNC(=N)N)NC(=O)[C@H](CC(C)C)NC(=O)[C@H](CC(C)C)NC(=O)[C@H](CCCNC(=N)N)NC(=O)[C@H](CCCCN)NC(=O)[C@H](CCCNC(=N)N)NC(=O)[C@H](CC(C)C)NC(=O)[C@H](CCCCN)NC(=O)[C@H](CCCNC(=N)N)NC(=O)[C@H](CC(C)C)NC(=O)[C@H](Cc1c[nH]cn1)NC(=O)[C@H](CO)NC(=O)[C@H](C)NC(=O)[C@@H](N)CC(C)C)C(C)C)[C@@H](C)O)C(C)C)[C@@H](C)O)C(=O)O` [T-065] (H-LASHLRKLRKRLLRSLVSQYFQTVTDYGKDLM-OH) are “substantial change in viability” and less than 10 µM. In the case of `CC(C)C[C@H](NC(=O)[C@H](C)NC(=O)[C@H](CCCNC(=N)N)NC(=O)[C@H](Cc1ccccc1)NC(=O)[C@H](CCC(=O)O)NC(=O)[C@H](CCCNC(=N)N)NC(=O)[C@@H](N)Cc1c[nH]c2ccccc12)C(=O)N[C@@H](Cc1ccccc1)C(=O)N[C@@H](CCCCN)C(=O)N[C@@H](CCC(=O)O)C(=O)N[C@@H](CC(C)C)C(=O)N[C@@H](C)C(=O)N[C@@H](CC(=O)O)C(=O)N[C@@H](Cc1ccc(O)cc1)C(=O)N[C@@H](Cc1ccccc1)C(=O)N[C@@H](CCCNC(=N)N)C(=O)N[C@@H](CC(=O)O)C(=O)N[C@@H](C)C(=O)O` [T-085] (H-WREFRALFKELADYFRDA-OH), the ARPE-19 cell viability entry in data set [3] is on record as “substantial change in viability”. As for `CC(C)C[C@H](NC(=O)[C@H](CC(=O)O)NC(=O)[C@H](CCCCN)NC(=O)CNC(=O)[C@H](Cc1ccc(O)cc1)NC(=O)[C@H](CC(=O)O)NC(=O)[C@@H](NC(=O)[C@@H](NC(=O)[C@@H](NC(=O)[C@H](CCC(N)=O)NC(=O)[C@H](CCCNC(=N)N)NC(=O)[C@H](Cc1ccc(O)cc1)NC(=O)[C@H](CCC(N)=O)NC(=O)[C@H](CO)NC(=O)[C@@H](NC(=O)[C@H](CC(C)C)NC(=O)[C@H](CO)NC(=O)[C@H](CCCNC(=N)N)NC(=O)[C@H](CC(C)C)NC(=O)[C@H](CC(C)C)NC(=O)[C@H](CCCNC(=N)N)NC(=O)[C@H](CCCCN)NC(=O)[C@H](CCCNC(=N)N)NC(=O)[C@H](CC(C)C)NC(=O)[C@H](CCCCN)NC(=O)[C@H](CCCNC(=N)N)NC(=O)[C@H](CC(C)C)NC(=O)[C@@H](N)Cc1c[nH]cn1)C(C)C)[C@@H](C)O)C(C)C)[C@@H](C)O)C(=O)O` [T-110] (H-HLRKLRKRLLRSLVSQYRQTVTDYGKDL-OH), in data set [3], the ARPE-19 cell viability entry is recorded as “substantial change in viability”. Further, the Kd in data set [1] (setting [4]) is less than 10 µM. In the same order, the values of `CC(C)C[C@H](NC(=O)[C@H](CC(=O)O)NC(=O)[C@H](CCC(=O)O)NC(=O)CNC(=O)[C@H](Cc1ccc(O)cc1)NC(=O)[C@H](CC(=O)O)NC(=O)[C@@H](NC(=O)[C@@H](NC(=O)[C@@H](NC(=O)[C@H](CCC(N)=O)NC(=O)[C@H](CCCNC(=N)N)NC(=O)[C@H](Cc1ccc(O)cc1)NC(=O)[C@H](CCC(N)=O)NC(=O)[C@H](CO)NC(=O)[C@@H](NC(=O)[C@H](CC(C)C)NC(=O)[C@H](CO)NC(=O)[C@H](CCCNC(=N)N)NC(=O)[C@H](CC(C)C)NC(=O)[C@H](CC(C)C)NC(=O)[C@H](CCCNC(=N)N)NC(=O)[C@H](CCCCN)NC(=O)[C@@H](NC(=O)[C@H](CC(C)C)NC(=O)[C@H](CCCCN)NC(=O)[C@H](CCCNC(=N)N)NC(=O)[C@H](CC(C)C)NC(=O)[C@@H](N)Cc1c[nH]cn1)C(C)C)C(C)C)[C@@H](C)O)C(C)C)[C@@H](C)O)C(=O)O` [T-111] (H-HLRKLVKRLLRSLVSQYRQTVTDYGEDL-OH) are “substantial change in viability” and less than 10 µM. Take “DHINKVQRKVTHEIERLFLGQSTEELRVRLASHLRKLRKRLLRDADDLQKRLAVYQA [T-115]”: the ARPE-19 cell viability result in data set [3] is recorded as “substantial change in viability”. The Kd in data set [1] is less than 10 µM.

Take “VRGRLVQYRGEVQAMLGQSTEELRVRLASHLRKLRKRLLRDADDLQKRLAVYQA [T-069]”: the ARPE-19 cell viability result in data set [3] was “substantial change in viability”. The compound further registered a Kd in data set [1] of less than 10 µM.
